Experimental data as given in US8501955B2, “Acetamide derivatives as glucokinase activators, their process and medicinal application” (Advinus Therapeutics Private Limited, priority 2007, dated 2013).

Columns and labels:
[1] = target: T1, purified human recombinant GK (Homo sapiens, UniProt P35557); assay: Glucokinase activity assay (coupled enzymatic GK/G6PD assay, NADH absorbance at 340 nm); format: biochemical; settings: for EC50: EC50 of % change in S0.5 of glucokinase for glucose, sigmoidal fit, read-out: EC50 (with respect to % ΔS0.5); for % Emax (with respect to % ΔS0.5) / Emax: Emax of % change in S0.5, vehicle S0.5 = 0%, 0 mM glucose = 100%; for Emax: read-out: % Emax (with respect to % ΔS0.5)
T1 sequence (P35557 1-465): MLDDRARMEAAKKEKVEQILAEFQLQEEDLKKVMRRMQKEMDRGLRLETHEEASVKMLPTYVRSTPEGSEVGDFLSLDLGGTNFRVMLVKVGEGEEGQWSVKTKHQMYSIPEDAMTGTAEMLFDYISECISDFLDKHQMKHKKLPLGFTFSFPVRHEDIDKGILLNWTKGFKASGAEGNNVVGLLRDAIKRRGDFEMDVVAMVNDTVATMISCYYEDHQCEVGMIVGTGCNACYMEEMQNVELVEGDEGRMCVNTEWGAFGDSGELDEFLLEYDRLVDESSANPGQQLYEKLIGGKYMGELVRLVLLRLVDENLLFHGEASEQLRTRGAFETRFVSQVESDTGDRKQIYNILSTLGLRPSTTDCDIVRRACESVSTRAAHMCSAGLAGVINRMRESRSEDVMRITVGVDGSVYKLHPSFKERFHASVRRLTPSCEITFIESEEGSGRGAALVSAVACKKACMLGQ
Description: The glucokinase (GK) assay is a coupled enzymatic assay. GK catalyzes the first step of glycolysis, the conversion of glucose to glucose-6-phosphate (G6P) in the presence of ATP. G6P in turn is converted by glucose-6-phosphate dehydrogenase (G6PD) to 6-phosphogluconate, a process that requires NAD, resulting in NADH formation. Since the GK-catalyzed step is the rate-limiting step of this coupled enzymatic process, the rate of accumulation of 6-phosphogluconate and NADH is directly proportional to the rate of glucose phosphorylation by GK. The rate of the GK-catalyzed reaction can therefore be measured by monitoring the increase in NADH absorbance at 340 nm.
The assay is carried out according to the protocol outlined in Hariharan et al (1997), Diabetes 46: 11-16. Briefly, the test compounds are incubated in a reaction mix containing 25 mM HEPES (pH 7.2), 10 mM MgCl2, 100 mM KCl, 5 mM ATP, 2 mM DTT, 0.5 mM NAD, 1 U/ml Leuconostoc mesenteroides G6PD, 0.3 U/ml of purified human recombinant GK, and different concentrations of glucose. Enzymatic activity is calculated from the initial reaction velocity, measured from the change in NADH absorbance as a function of time.
Compounds described in formula (I), in concentration ranges from 1.0 nM to […] are tested in the purified human recombinant glucokinase assay described above.
A compound is considered to be a glucokinase activator if it, in its testable range of concentrations, yields a higher rate of glucose phosphorylation than in its absence at a particular glucose concentration, for example at 5 mM glucose.
Compounds of general formula (I) are tested in the in vitro GK enzymatic assay to monitor dose-dependent effect on glucokinase activation (in kinetic mode), as described above, at various glucose concentrations. The S0.5 of glucokinase for glucose at different concentration of each compound of interest is calculated from the following modified version of the Michaelis-Menten equation, V=Vmax[S]^n/(S0.5^n+[S]^n), where [S] is the glucose concentration and n is the Hill coefficient (taken as 1.7 to account for the sigmoidal kinetics of glucokinase with respect to glucose). The S0.5 is plotted against the log of the compound concentration. The change in the S0.5 of glucokinase (ΔS0.5) for glucose is calculated by subtracting the S0.5 at each concentration of the compound from the S0.5 in the vehicle control. The ΔS0.5 is then normalized to a percent scale, where the S0.5 in the vehicle control is set to 0% and 0 mM glucose is set to 100%. The % ΔS0.5 is then plotted against the log of the compound concentration. The EC50 and Emax of % change in S0.5 is obtained from the sigmoidal fit of the data. Detailed protocol has been described in our copending application no. WO 2008/104994 which is incorporated herein by reference. Characterization data of some representative glucokinase activators of the present disclosure, which are illustrative but not limiting, are given in table 1 below.

primary rat hepatocytes = assay: Measurement of glycogen synthesis in primary rat hepatocytes; format: cell-based; settings: 10 mM glucose, fold increase over DMSO control; for Fold increase in glycogen synthesis at 10 μM compound: 3 hours; for fold induction at 10 µM: Rattus norvegicus, Hepatocyte, 3 h, 10 μM compound
Method: Primary hepatocytes are collected from male Wistar rats, and tested for viability by trypan blue exclusion. Primary hepatocytes cultures with viability greater than 95% are selected for the glycogen synthesis assay. The cells are seeded in a 48-well plate at a density of 200,000 cells/well in 250 μl Minimal Essential Medium (MEM) containing 10% foetal calf serum (FCS) and 1.7 μM insulin, and incubated for 4 hours at 37° C. to allow attachment. The medium is replaced with fresh MEM containing 10% FCS, 1.7 μM insulin and 10 nM dexamethasone, and the cells are incubated for 16 hours at 37° C. The medium is then replaced with fresh MEM (serum-free) containing 2 μCi/ml of D-[U^14C]-Glucose along with 10 μM of the compound in a final DMSO concentration of 0.1%. The final glucose concentration is brought to 10 mM by the addition of D-Glucose (MEM already contains 5 mM glucose). The cells are incubated for 3 hours at 37° C. The cells are washed twice with 150 mM NaCl, lysed with 0.1 N NaOH, and the lysate precipitated with 8% w/v trichloroacetic acid (TCA) and 1 mg/well unlabeled glycogen as carrier. Cell debris is pelleted by centrifugation, the supernatant is removed, and the glycogen is precipitated with 63% ethanol. After another round of centrifugation, the supernatant is removed, and the pellet containing the precipitated glycogen is dried overnight. De novo synthesized glycogen is estimated in a scintillation counter (MicroBeta Trilux, Perkin Elmer), and expressed as fold increase over DMSO control.
The protocol for the glycogen assay is based on the method described in “Biochem J. 1990 Feb. 15; 266(1): 91-102” with a few minor modifications. The protocol for isolation of primary rat hepatocytes is based on the method described in “Methods in Enzymology, Vol. III. pp 34-50. Ed. by S. P. Colowick and N. O. Kaplan. New York, Academic Press, 1957” with a few minor modifications.
Compounds described in formula (I), in concentration ranges from 1.0 nM to 500 μM, are tested in glycogen synthesis assay described above.

Structure (SMILES) | EC50 [1] [µM] | % Emax (with respect to % ΔS0.5) [1] [%] | Emax [1] [%] | Fold increase in glycogen synthesis at 10 μM compound (primary rat hepatocytes) [fold] | fold induction at 10 µM (primary rat hepatocytes)
O=C(O)c1ccc(Oc2cnc(NC(=O)C(OC3CCOCC3)c3ccc(S(=O)(=O)C4CC4)cc3)s2)cc1 (single isomer, unassigned; (+)) [Example H7A, (+) 4-{2-[2-(4-Cyclopropanesulfonyl-phenyl)-2-(tetrahydro-pyran-4-yloxy)-acetylamino]-thiazol-5-yloxy}-benzoic acid] | – | – | – | – | 7.7
COc1ccc2nc(NC(=O)C(OC3CCOCC3)c3ccc(S(=O)(=O)C4CC4)cc3)sc2n1 (single isomer, unassigned; (+)) [Example H12A, (+)2-(4-Cyclopropanesulfonyl-phenyl)-N-(5-methoxy-thiazolo[5,4-b]pyridin-2-yl)-2-(tetrahydro-pyran-4-yloxy)-Acetamide] | – | – | – | – | 5
O=C(O)Cc1nc(NC(=O)C(Oc2ccc(F)cc2F)c2ccc(S(=O)(=O)C3CC3)cc2)sc1Cl (single isomer, unassigned; (-)) [Example E1, (−)-{5-Chloro-2-[2-(4-cyclopropanesulfonyl-phenyl)-2-(2,4-difluorophenoxy)acetyl-amino]thiazol-4-yl}acetic acid] | 1.55 | – | 95 | – | 8.1
Cc1csc(NC(=O)C(Oc2ccc(F)cc2F)c2ccc(S(=O)(=O)C3CC3)cc2)n1 (centres unmarked) [Example A15, 2-(4-Cyclopropanesulfonylphenyl)-2-(2,4-difluorophenoxy)-N-(4-methyl-thiazol-2-yl)acetamide] | – | – | – | – | 3.7
O=C(O)Cc1nc(NC(=O)C(Oc2ccc(F)cc2F)c2ccc(S(=O)(=O)C3CCCCC3)cc2)sc1Cl (centres unmarked) [Example B15, {5-Chloro-2-[2-(4-cyclohexanesulfonylphenyl)-2-(2,4-difluorophenoxy)acetylamino]-thiazol-4-yl}acetic acid] | 0.67 | – | 95 | – | –
CCOc1sc(NC(=O)C(Oc2ccc(F)cc2F)c2ccc(S(=O)(=O)C3CC3)cc2)nc1CC(=O)O (centres unmarked) [Example B22, {2-[2-(4-Cyclopropanesulfonylphenyl)-2-(2,4-difluorophenoxy)acetylamino]-5-ethoxy-thiazol-4-yl}acetic acid] | > 10 | – | – | – | –
O=C(O)c1csc(NC(=O)C(Oc2ccc(Cl)cc2F)c2ccc(S(=O)(=O)C3CC3)cc2)n1 (centres unmarked) [Example B26, 2-[2-(4-Chloro-2-fluorophenoxy)-2-(4-cyclopropanesulfonylphenyl)acetylamino]thiazole-4-carboxylic acid] | > 10 | – | – | – | –
O=C(O)c1ccc(Oc2cnc(NC(=O)C(Oc3ccc(F)cc3F)c3ccc(S(=O)(=O)N4CCCCC4)cc3)s2)cc1 (centres unmarked) [Example B50, 4-(2-{2-(2,4-Difluoro-phenoxy)-2-[4-(piperidine-1-sulfonyl)-phenyl]-acetylamino}-thiazol-5-yloxy)-benzoic acid] | 0.28 | – | 90 | – | –
O=C(O)c1ccc(Oc2cnc(NC(=O)C(OC3CCOCC3)c3ccc(S(=O)(=O)C4CC4)cc3)s2)c(F)c1 (centres unmarked) [Example B94, 4-{2-[2-(4-Cyclopropanesulfonyl-phenyl)-2-(tetrahydro-pyran-4-yloxy)-acetylamino]-thiazol-5-yloxy}-3-fluoro-benzoic acid] | – | – | – | – | 8.7
O=C(O)Cc1ccc(Oc2cnc(NC(=O)C(OC3CCOCC3)c3ccc(S(=O)(=O)C4CC4)cc3)s2)cc1 (centres unmarked) [Example B100, (4-{2-[2-(4-Cyclopropanesulfonyl-phenyl)-2-(tetrahydro-pyran-4-yloxy)-acetylamino]-thiazol-5-yloxy}-phenyl)-acetic acid] | 0.22 | – | 91 | – | –

Second part, led by results:

EC50 [1] [µM] | % Emax (with respect to % ΔS0.5) [1] [%] | Emax [1] [%] | Structure (SMILES) | Fold increase in glycogen synthesis at 10 μM compound (primary rat hepatocytes) [fold] | fold induction at 10 µM (primary rat hepatocytes)
1.27 | 90 | – | O=C(O)Cc1nc(NC(=O)C(Oc2ccc(F)cc2F)c2ccc(S(=O)(=O)C3CC3)cc2)sc1Cl (single isomer, unassigned; (+)) [Example F1, (+)-{5-Chloro-2-[2-(4-cyclopropanesulfonyl-phenyl)-2-(2,4-difluorophenoxy)acetyl-amino]thiazol-4-yl}-acetic acid] | 4.5 | –
0.67 | 95 | – | O=C(O)Cc1nc(NC(=O)C(Oc2ccc(F)cc2F)c2ccc(S(=O)(=O)C3CCCC3)cc2)sc1Cl (single isomer, unassigned; (+)) [Example F2, (+)-{5-Chloro-2-[2-(4-cyclopentanesulfonyl-phenyl)-2-(2,4-difluorophenoxy)acety-lamino]thiazol-4-yl}acetic acid] | 7.2 | –
2.47 | 90 | – | O=C(O)Cc1csc(NC(=O)C(Oc2ccc(F)cc2F)c2ccc(S(=O)(=O)C3CC3)cc2)n1 (single isomer, unassigned; (+)) [Example F3, (+)-{2-[2-(4-Cyclopropanesulfonylphenyl)-2-(2,4-difluorophenoxy)acetylamino]thiazol-4-yl}acetic acid] | 7.0 | –
0.37 | – | 95 | O=C(O)Cc1nc(NC(=O)C(Oc2ccc(F)cc2F)c2ccc(S(=O)(=O)C3CCCC3)cc2)sc1Cl (single isomer, unassigned; (-)) [Example E2, (−)-{5-Chloro-2-[2-(4-cyclopentanesulfonyl-phenyl)-2-(2,4-difluorophenoxy)acetyl-amino]thiazol-4-yl}-acetic acid] | – | 8.8
0.2 | – | 90 | NC(=O)c1cccc(Oc2cnc(NC(=O)C(Oc3ccc(F)cc3F)c3ccc(S(=O)(=O)C4CC4)cc3)s2)c1 (centres unmarked) [Example G3, 3-{2-[2-(4-Cyclopropanesulfonyl-phenyl)-2-(2,4-difluoro-phenoxy)-acetylamino]-thiazol-5-yloxy}-benzamide] | – | –
